As a reminder, the IC50 is the midpoint of a concentration-inhibition curve.

Results on one compound are retold here after paper PMC8210154, “Tumor-selective, antigen-independent delivery of a pH sensitive peptide-topoisomerase inhibitor conjugate suppresses tumor growth without systemic toxicity” (NAR Cancer, 2021).

The target of series [1] is T1, TOP1 protein levels in HCT116 cells (Homo sapiens, UniProt P11387).
T1 construct: endogenous in cells; host or cells: HCT116 cells
T1 sequence (P11387 1-765): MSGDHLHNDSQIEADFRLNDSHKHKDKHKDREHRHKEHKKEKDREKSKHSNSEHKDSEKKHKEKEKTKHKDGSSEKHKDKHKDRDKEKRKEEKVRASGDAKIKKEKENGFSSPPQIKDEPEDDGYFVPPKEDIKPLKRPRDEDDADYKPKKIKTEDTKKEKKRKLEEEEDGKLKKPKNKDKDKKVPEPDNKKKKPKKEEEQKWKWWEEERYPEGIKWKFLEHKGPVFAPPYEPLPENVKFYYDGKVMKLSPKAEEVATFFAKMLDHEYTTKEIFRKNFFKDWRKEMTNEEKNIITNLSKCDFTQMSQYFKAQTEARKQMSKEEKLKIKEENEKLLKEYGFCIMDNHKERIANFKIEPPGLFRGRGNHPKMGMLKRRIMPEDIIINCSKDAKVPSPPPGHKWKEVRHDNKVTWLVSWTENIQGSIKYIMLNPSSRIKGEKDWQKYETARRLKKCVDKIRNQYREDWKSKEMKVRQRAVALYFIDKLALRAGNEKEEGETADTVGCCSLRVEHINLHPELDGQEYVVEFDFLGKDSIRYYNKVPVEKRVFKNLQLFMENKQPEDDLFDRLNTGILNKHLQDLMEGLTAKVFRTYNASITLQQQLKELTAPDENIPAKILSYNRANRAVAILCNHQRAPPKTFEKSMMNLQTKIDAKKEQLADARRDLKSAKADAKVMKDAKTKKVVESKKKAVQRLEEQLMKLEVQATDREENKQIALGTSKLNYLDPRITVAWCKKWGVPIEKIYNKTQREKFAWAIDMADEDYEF
Kind of series: TOP1 FACS assay, HCT116 cells dosed in vitro. It is filed as cell-based. To be noted: 24 h, read-out: IC50 for TOP1 protein levels. The method, then:
HCT116 cells were plated at 2.5 × 10^5/mL in 2 mL DMEM^+ in six-well plates. Cells were allowed to attach overnight in 37°C incubator before compound addition. […] Cells were scraped, washed with PBS and counted.
(§1) Tumor and bone marrow cells collected 24 h after dosing were permeabilized and fixed for 20 min on ice in the dark (Cytofix/Cytoperm Becton Dickinson; #554714), then washed 2× with Perm Wash. Cells were stained with rabbit anti-topoisomerase 1 antibody (Abcam; #109374) at 1 μg/ml on ice in the dark for 30 min and washed 2×, followed by staining with secondary antibody goat anti-rabbit IgG AF647 (Jackson ImmunoResearch; #111-605-144 diluted 1:1000) on ice in dark for 30 min. After a final 2× wash, the reduction of topoisomerase I (TOP1) protein levels was evaluated by collecting 10,000 (tumor) or 30,000 (BM) cells and determining the number of TOP1 positive stained cells on a BD Accuri™ flow cytometer.
(In flow cytometry, cells or beads pass a laser one at a time.)

Series [2] addresses T2, TOP1 protein levels in rat bone marrow cells (Rattus norvegicus, UniProt Q9WUL0).
T2 construct: from tissue; host or cells: rat bone marrow cells, dosed ex vivo
T2 sequence (Q9WUL0 1-767): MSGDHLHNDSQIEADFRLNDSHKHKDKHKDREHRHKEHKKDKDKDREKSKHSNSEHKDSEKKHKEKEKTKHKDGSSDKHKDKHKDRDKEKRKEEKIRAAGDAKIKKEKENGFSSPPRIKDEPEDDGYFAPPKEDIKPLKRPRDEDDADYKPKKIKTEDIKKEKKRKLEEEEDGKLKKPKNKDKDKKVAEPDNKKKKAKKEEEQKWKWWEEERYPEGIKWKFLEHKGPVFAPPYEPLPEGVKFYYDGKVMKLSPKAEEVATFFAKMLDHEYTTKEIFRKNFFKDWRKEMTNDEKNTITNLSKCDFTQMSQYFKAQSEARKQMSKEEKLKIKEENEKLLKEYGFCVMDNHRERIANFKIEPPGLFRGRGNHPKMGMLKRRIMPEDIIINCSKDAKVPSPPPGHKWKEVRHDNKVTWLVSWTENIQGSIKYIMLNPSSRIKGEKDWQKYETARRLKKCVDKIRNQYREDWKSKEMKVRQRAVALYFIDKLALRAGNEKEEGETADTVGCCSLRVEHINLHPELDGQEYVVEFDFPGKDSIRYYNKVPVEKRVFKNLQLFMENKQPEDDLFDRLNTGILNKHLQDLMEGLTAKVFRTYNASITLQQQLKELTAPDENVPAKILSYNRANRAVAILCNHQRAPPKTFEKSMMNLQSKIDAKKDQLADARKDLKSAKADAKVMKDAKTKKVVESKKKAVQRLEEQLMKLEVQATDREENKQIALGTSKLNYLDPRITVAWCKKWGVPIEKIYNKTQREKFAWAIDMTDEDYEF
Put plainly: TOP1 FACS assay, rat bone marrow cells dosed ex vivo. It is filed as cell-based. To be noted: rat bone marrow cells in vitro, 24 h; read-out: IC50 for TOP1 protein levels. The method, then:
Naïve Sprague-Dawley rat bone marrow cells were plated at 1 × 10^6/ml in 2 mL of RPMI^+ in six-well plates. Cells were allowed to incubate for 3 h at 37°C before compound addition. […] Cells were harvested, washed with PBS and counted.
as §1

The target in series [3] is T3, TOP1 protein levels in HCT116 tumor tissue (Homo sapiens, UniProt P11387).
T3 construct: Xenograft tumors were excised, weighed, and minced then were digested to single cells; from tissue; host or cells: HCT116 xenograft tumors from athymic nude mice
T3 sequence (P11387 1-765): T1 sequence (P11387 1-765)
Put plainly: TOP1 FACS assay, HCT116 xenografted tumor of dosed mice. The format is in vivo. Particulars: 2.5 μmol/kg for 4 days, 24 h post last dose. As for the experimental part:
The vials capped and vortexed for 2 min.
Xenograft tumors were excised, weighed, and minced then were digested to single cells with an enzyme mix (Miltenyi; #130-095-929) for 40 min shaking at 37°C. Enzymes were inactivated by adding equal volume of DMEM^+. Digested cells were sequentially filtered through 70 μm then 40 μm filters and centrifuged at 700 rpm for 7 min at 4°C.
as §1

Series [4] addresses T4, TOP1 protein levels in bone marrow (Mus musculus, UniProt Q04750).
T4 construct: Mouse bone marrow cells were isolated as described above; from tissue; host or cells: bone marrow of athymic nude mice bearing HCT116 xenografts
T4 sequence (Q04750 1-767): T2 sequence (Q9WUL0 1-767) with D77E, K90R, P141L, L167S, A197P, G239S, K665R
Kind of series: TOP1 FACS assay, bone marrow of dosed mice. The format is in vivo. Particulars: 2.5 μmol/kg for 4 days, 24 h post last dose. The method, then: Mouse bone marrow cells were isolated as described above.
as §1

Series [5] can be described thus: Toxicity in rats (body weight, duodenum H&E histology). It is filed as in vivo. An excerpt:
Duodenal tissue samples were fixed in 10% neutral buffered formalin, processed and embedded in paraffin. Tissue cross sections (5 μm) were mounted on positively charged microscope slides and stained with hematoxylin and eosin (H&E) (PolyScientific R&D, New York). Images were taken of tissue sections by standard light microscopy using an EVOS FL Cell Imaging System (Life Technologies) for histomorphological evaluation of intestinal inflammation.

A further series concerns HCT116 cells. Kind of series: In vitro cell killing, HCT116 cells. It is filed as cell-based. Particulars: Homo sapiens, HCT-116, data not shown. As for the experimental part:
(§2) Microplate-based short-term viability and synergy assays were performed as described previously ([18]).

Series [6] deals with MDA-MB-231 cells. Put plainly: Short-term viability assay, MDA-MB-231 cells. To be noted: Homo sapiens. It is filed as cell-based. The method, then:
as §2

Series [7] deals with MDA-MB-231 cells. Kind of series: Synergy assay (Bliss) exatecan with talazoparib, MDA-MB-231 cells. The format is cell-based, human. Particulars: Bliss synergy analysis.
Series [8] concerns γH2AX in HCT116 flank tumors. Kind of series: γH2AX immunofluorescence assay in HCT116 flank tumors. The format is in vivo, mice. Particulars: 1.15 mg/kg exatecan, P < 0.001. As for the experimental part: Tumors were collected as detailed above, and FFPE tumor slides were created for IF staining. Antigen retrieval was performed using a heat-induced epitope retrieval (HIER) method, with TRIS-EDTA pH 9.0. Staining with primary antibody (mouse anti-human γH2AX; 1:500, Invitrogen) followed by secondary antibody (Goat anti-mouse Ax594; 1:1000, Invitrogen) was then performed. Images were obtained with a Keyence imager. Data analysis was performed in ImageJ and CellProfiler ([16]). Raincloud plots and heatmap were generated in R version 4.0.3 ([17]). Statistical analysis for γH2AX expression was performed using Kruskal–Wallis test, followed by Dunn's multiple comparison test (GraphPad Prism 9.1.0).

A further series relates to MKN45 xenografts. Put plainly: MKN45 xenograft in nude mice. To be noted: MKN45 flank model, 2.3 mg/kg (equimolar to 20 mg/kg CBX-12).
Series [9] is described as follows: Toxicity in mice (bone marrow cell counts, body weight, stomachs).
Protocol: Following tumor collection, mice were euthanized by cervical dislocation under anesthesia in accordance with the American Veterinary Medical Association (AVMA) Guidelines for the Euthanasia of Animals. Femurs were removed, and bone marrow was extruded into 50 mL conical tubes by flushing the bones with a 23-gauge needle fitted on a 5cc syringe containing PBS + 2% fetal bovine serum (FBS). Bone marrow was homogenized by gentle pipetting and filtered through 100 μm nylon mesh filters and cells were pelleted by centrifugation at 1200 rpm for 5 min at 4°C. Red blood cells were lysed with 3 mL of lysis buffer for 2 min at room temperature. PBS was added to a volume of 25 mL and cells were re-pelleted by centrifugation as described above. Cell pellets were suspended in 5 mL of PBS and cell count was assessed by trypan blue exclusion on a TC-20 cell counter (BioRad).

Where a chain is given by its changes, count along the chain named. Entries after “also recorded” stand apart in the source; their conditions may differ.

Regarding `CC[C@@]1(O)C(=O)OCc2c1cc1n(c2=O)Cc2c-1nc1cc(F)c(C)c3c1c2[C@@H](N)CC3` [exatecan], the values for the DC50 in series [1] and in [2] were 24.8 nM and 27.3 nM, respectively. Moreover, the “TOP1 protein levels in HCT116 flank tumor tissue” value in [3] is on record as “decreased”. Further, the “TOP1 protein levels in bone marrow” value in series [4] is reported as “decreased”. Moreover, the “GI toxicity microscopically (H&E of duodenum)” value in series [5] (rat, in vivo) is listed as “significant GI toxicity”. The body weight result is “significant and unrecoverable body weight reductions” in series [5] (rats (Figure 3C)); “significant and unrecoverable body weight reductions” in series [9] (mice (Figure 3B)). Further, the 50% inhibitory concentration (IC50) was determined as 0.2 nM with HCT116 cells and 0.21 nM in the series on MDA-MB-231 cells [6]. The “interaction when combined with talazoparib” value with MDA-MB-231 cells [7] is “robust synergy”. For the same compound, the “γH2AX expression after second cycle compared to first cycle” value in [8] is on record as “significant higher γH2AX expression; also recorded: significantly higher γH2AX expression”. In addition, the tolerability result in the series on MKN45 xenografts was “not tolerated and was lethal in all animals”. Also, in [9] (mice, equimolar doses), the “bone marrow cell counts” value is reported as “drastic bone marrow suppression”.
